Structures can show the parent of a compound that is named as a salt.
Biological target: T1, human FXR (Homo sapiens, UniProt Q96RI1)
T1 construct: expressed in transfected cells
T1 sequence (Q96RI1 1-486): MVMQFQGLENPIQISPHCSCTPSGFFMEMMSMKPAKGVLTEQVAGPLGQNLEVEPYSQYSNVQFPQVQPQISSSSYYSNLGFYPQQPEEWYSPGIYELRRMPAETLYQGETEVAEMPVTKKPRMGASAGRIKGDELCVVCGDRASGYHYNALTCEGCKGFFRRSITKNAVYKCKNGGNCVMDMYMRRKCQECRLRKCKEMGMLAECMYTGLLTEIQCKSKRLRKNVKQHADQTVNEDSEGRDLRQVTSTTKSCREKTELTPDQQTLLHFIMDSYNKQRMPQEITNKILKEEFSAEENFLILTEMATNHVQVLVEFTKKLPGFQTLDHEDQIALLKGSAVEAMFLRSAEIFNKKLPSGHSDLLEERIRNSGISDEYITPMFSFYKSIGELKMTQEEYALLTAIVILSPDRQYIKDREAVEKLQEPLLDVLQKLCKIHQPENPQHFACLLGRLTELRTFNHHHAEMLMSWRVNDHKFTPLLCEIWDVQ
Assay: FXR reporter assay (cellular FXR activities)
Assay type: cell-based
Details: for EC50: FXR reporter cells, 24 hours incubation, luciferase, read-out: Reporter Cell EC50; for Emax: read-out: Emax (%) (GW4064 Emax = 100%)
Procedure: FXR reporter assay was performed to measure cellular FXR activities of the compounds in the present invention. FXR reporter cells with high expression level of human FXR were seeded into 96-well cell culture plates, and incubated for 1-2 hours at 37° C. under 5% CO2 atmosphere. The invented compounds diluted in DMSO with various concentrations were added to the 96-well cell culture plates, and they were incubated for 24 hours at 37° C. under 5% CO2 atmosphere. After incubation, we calculate EC50 by using luciferase substrate.

## O=C(O)c1cc(C#Cc2ccc(OCc3c(-c4c(Cl)cccc4Cl)noc3C3CC3)cc2Cl)cc(OC(F)(F)F)c1 [Compound I-39, 3-((2-chloro-4-((5-cyclopropyl-3-(2,6-dichlorophenyl)isoxazol-4-yl)methoxy)phenyl)ethynyl)-5-(trifluoromethoxy)benzoic acid]
  EC50: 200 to 1000 nM
  Emax: 85%

## O=C(O)c1cc(C#Cc2ccc(OCc3c(-c4c(Cl)cccc4Cl)noc3C3CC3)cc2Cl)cc(N2CCNCC2)c1 [Compound I-59, 3-((2-chloro-4-((5-cyclopropyl-3-(2,6-dichlorophenyl)isoxazol-4-yl)methoxy)phenyl)ethynyl)-5-(piperazin-1-yl)benzoic acid hydrochloride]
  EC50: 200 to 1000 nM
  Emax: 90%

## O=C(O)c1cc(C#Cc2ccc(OCc3c(-c4c(Cl)cccc4Cl)noc3C3CC3)cc2Cl)cc(C(F)(F)F)c1 [Compound I-31, 3-((2-chloro-4-((5-cyclopropyl-3-(2,6-dichlorophenyl)isoxazol-4-yl)methoxy)phenyl)ethynyl)-5-(trifluoromethyl)benzoic acid]
  EC50: 20 to 60 nM
  Emax: > 100%

## CN(C)CCn1ccc2c(C#Cc3ccc(OCc4c(-c5c(Cl)cccc5Cl)noc4C4CC4)cc3Cl)cc(C(=O)O)cc21 [Compound I-92, 4-((2-chloro-4-((5-cyclopropyl-3-(2,6-dichlorophenyl)isoxazol-4-yl)methoxy)phenyl)ethynyl)-1-(2-(dimethylamino)ethyl)-1H-indole-6-carboxylic acid]
  EC50: 20 to 60 nM
  Emax: 87%

## O=C(O)c1cc(I)cc(C#Cc2ccc(OCc3c(-c4c(Cl)cccc4Cl)noc3C3CC3)cc2Cl)c1 [Compound I-67, 3-((2-chloro-4-((5-cyclopropyl-3-(2,6-dichlorophenyl)isoxazol-4-yl)methoxy)phenyl)ethynyl)-5-iodobenzoic acid]
  EC50: 20 to 60 nM
  Emax: > 100%

## O=C(O)c1cccc(C#Cc2ccc(OCc3c(-c4c(Cl)cccc4Cl)noc3C3CC3)c(Cl)c2Cl)c1 [Compound I-69, 3-((2,3-dichloro-4-((5-cyclopropyl-3-(2,6-dichlorophenyl)isoxazol-4-yl)methoxy)phenyl)ethynyl)benzoic acid]
  EC50: 200 to 1000 nM
  Emax: > 100%

## CCOC(=O)Nc1cc(C#Cc2ccc(OCc3c(-c4c(Cl)cccc4Cl)noc3C3CC3)cc2Cl)cc(C(=O)O)c1 [Compound I-74, 3-((2-chloro-4-((5-cyclopropyl-3-(2,6-dichlorophenyl)isoxazol-4-yl)methoxy)phenyl)ethynyl)-5-((ethoxycarbonyl)amino)benzoic acid]
  EC50: ≤ 20 nM
  Emax: > 100%

## O=C(O)c1cc(C#Cc2ccc(OCc3c(-c4c(Cl)cccc4Cl)noc3C3CC3)cc2Cl)cc(CNC2COC2)c1 [Compound I-51, 3-((2-chloro-4-((5-cyclopropyl-3-(2,6-dichlorophenyl)isoxazol-4-yl)methoxy)phenyl)ethynyl)-5-((oxetan-3-ylamino)methyl)benzoic acid]
  EC50: 200 to 1000 nM
  Emax: 75%

## CS(=O)(=O)Nc1cccc(C#Cc2ccc(OCc3c(-c4c(Cl)cccc4Cl)noc3C3CC3)cc2Cl)c1 [Compound I-13, N-(3-((2-chloro-4-((5-cyclopropyl-3-(2,6-dichlorophenyl)isoxazol-4-yl)methoxy)phenyl)ethynyl)phenyl)methanesulfonamide]
  EC50: 200 to 1000 nM
  Emax: 90%

## O=C(O)c1cc(C#Cc2ccc(OCc3c(-c4c(Cl)cccc4Cl)noc3C3CC3)cc2Cl)cc2ncoc12 [Compound I-102, 5-((2-chloro-4-((5-cyclopropyl-3-(2,6-dichlorophenyl)isoxazol-4-yl)methoxy)phenyl)ethynyl)benzo[d]oxazole-7-carboxylic acid]
  EC50: 200 to 1000 nM
  Emax: > 100%

## C#Cc1ccc(OCc2c(-c3c(Cl)cccc3Cl)noc2C2CC2)cc1Cl [Compound I-5, 4-((3-chloro-4-ethynylphenoxy)methyl)-5-cyclopropyl-3-(2,6-dichlorophenyl)isoxazole]
  EC50: 200 to 1000 nM
  Emax: 84%

## NS(=O)(=O)c1cccc(C#Cc2ccc(OCc3c(-c4c(Cl)cccc4Cl)noc3C3CC3)cc2Cl)c1 [Compound I-12, 3-((2-chloro-4-((5-cyclopropyl-3-(2,6-dichlorophenyl)isoxazol-4-yl)methoxy)phenyl)ethynyl)benzenesulfonamide]
  EC50: 200 to 1000 nM
  Emax: > 100%

## O=C(O)c1cc(C#Cc2ccc(OCc3c(-c4c(Cl)cccc4Cl)noc3C3CC3)cc2Cl)cc(C2CC2)c1 [Compound I-64, 3-((2-chloro-4-((5-cyclopropyl-3-(2,6-dichlorophenyl)isoxazol-4-yl)methoxy)phenyl)ethynyl)-5-cyclopropylbenzoic acid]
  EC50: 20 to 60 nM
  Emax: > 100%

## O=C(O)c1cccc(C#Cc2c(F)cc(OCc3c(-c4c(Cl)cccc4Cl)noc3C3CC3)cc2Cl)c1 [Compound I-70, 3-((2-chloro-4-((5-cyclopropyl-3-(2,6-dichlorophenyl)isoxazol-4-yl)methoxy)-6-fluorophenyl)ethynyl)benzoic acid]
  EC50: 60 to 200 nM
  Emax: > 100%

## CC(C)NCCCn1ccc2c(C#Cc3ccc(OCc4c(-c5c(Cl)cccc5Cl)noc4C4CC4)cc3Cl)cc(C(=O)O)cc21 [Compound I-93, 4-((2-chloro-4-((5-cyclopropyl-3-(2,6-dichlorophenyl)isoxazol-4-yl)methoxy)phenyl)ethynyl)-1-(3-(isopropylamino)propyl)-1H-indole-6-carboxylic acid]
  EC50: 200 to 1000 nM
  Emax: 82%

## CCNC(=O)Nc1cc(C#Cc2ccc(OCc3c(-c4c(Cl)cccc4Cl)noc3C3CC3)cc2Cl)cc(C(=O)O)c1 [Compound I-72, 3-((2-chloro-4-((5-cyclopropyl-3-(2,6-dichlorophenyl)isoxazol-4-yl)methoxy)phenyl)ethynyl)-5-(3-ethylureido)benzoic acid]
  EC50: 200 to 1000 nM
  Emax: > 100%

## CCNc1cc(C#Cc2ccc(OCc3c(-c4c(Cl)cccc4Cl)noc3C3CC3)cc2Cl)cc(C(=O)O)c1 [Compound I-53, 3-((2-chloro-4-((5-cyclopropyl-3-(2,6-dichlorophenyl)isoxazol-4-yl)methoxy)phenyl)ethynyl)-5-(ethylamino)benzoic acid]
  EC50: ≤ 20 nM
  Emax: 93%

## O=C(O)c1cc(C#Cc2ccc(OCc3c(-c4c(Cl)cccc4Cl)noc3C3CC3)cc2Cl)c2ccn(CCO)c2c1 [Compound I-97, 4-((2-chloro-4-((5-cyclopropyl-3-(2,6-dichlorophenyl)isoxazol-4-yl)methoxy)phenyl)ethynyl)-1-(2-hydroxyethyl)-1H-indole-6-carboxylic acid]
  EC50: ≤ 20 nM
  Emax: 94%

## Cc1c(N)cc(C(=O)O)cc1C#Cc1ccc(OCc2c(-c3c(Cl)cccc3Cl)noc2C2CC2)cc1Cl [Compound I-60, 3-amino-5-((2-chloro-4-((5-cyclopropyl-3-(2,6-dichlorophenyl)isoxazol-4-yl)methoxy)phenyl)ethynyl)-4-methylbenzoic acid]
  EC50: 20 to 60 nM
  Emax: 98%

## O=C(O)c1ccc(C#Cc2ccc(OCc3c(-c4c(Cl)cccc4Cl)noc3C3CC3)cc2)cc1 [Compound I-1, 4-((4-((5-cyclopropyl-3-(2,6-dichlorophenyl)isoxazol-4-yl)methoxy)phenyl)ethynyl)benzoic acid]
  EC50: > 1000 nM
  Emax: > 100%

## O=C(O)c1cccc(C#Cc2ccc(OCc3c(-c4ccccc4C(F)(F)F)noc3C3CC3)cc2Cl)c1 [Compound I-87, 3-((2-chloro-4-((5-cyclopropyl-3-(2-(trifluoromethyl)phenyl)isoxazol-yl)methoxy)phenyl)ethynyl)benzoic acid]
  EC50: 200 to 1000 nM
  Emax: > 100%

## O=C(O)c1cc(C#Cc2ccc(OCc3c(-c4c(Cl)cccc4Cl)noc3C3CC3)cc2Cl)cc(CNC2CC2)c1 [Compound I-42, 3-((2-chloro-4-((5-cyclopropyl-3-(2,6-dichlorophenyl)isoxazol-4-yl)methoxy)phenyl)ethynyl)-5-((cyclopropylamino)methyl)benzoic acid]
  EC50: 20 to 60 nM
  Emax: > 100%

## O=C(O)c1cc(C#Cc2ccc(OCc3c(-c4c(Cl)cccc4Cl)noc3C3CC3)cc2Cl)cc(CNCC(F)(F)F)c1 [Compound I-46, 3-((2-chloro-4-((5-cyclopropyl-3-(2,6-dichlorophenyl)isoxazol-4-yl)methoxy)phenyl)ethynyl)-5-(((2,2,2-trifluoroethyl)amino)methyl)benzoic acid]
  EC50: 60 to 200 nM
  Emax: 99%

## O=C(O)c1cccc(C#Cc2ccc(OCc3c(-c4c(Cl)cccc4Cl)noc3C3CC3)cc2Cl)c1F [Compound I-36, 3-((2-chloro-4-((5-cyclopropyl-3-(2,6-dichlorophenyl)isoxazol-4-yl)methoxy)phenyl)ethynyl)-2-fluorobenzoic acid]
  EC50: 60 to 200 nM
  Emax: 93%

## O=C(O)c1cc(C#Cc2ccc(OCc3c(-c4c(Cl)cccc4Cl)noc3C3CC3)cc2Cl)cc(C(=O)O)c1 [Compound I-84, 5-((2-chloro-4-((5-cyclopropyl-3-(2,6-dichlorophenyl)isoxazol-4-yl)methoxy)phenyl)ethynyl)isophthalic acid]
  EC50: 200 to 1000 nM
  Emax: 98%
